In one data set the target is T1, GLP-1R (Homo sapiens, UniProt P43220).
T1 construct: expressed in transfected cells
The experiment in a line: CRE-driven luciferase reporter assay, HEK293 cells overexpressing GLP-1R. The data set is classed as cell-based. The settings on record: for increase in activity toward GLP-1R on crosslinking: compared to its linear counterpart. How it is done: (§1) The surviving cells (referred to as CRE-HEK293) were expanded and then transfected with a G418 selective mammalian expression plasmid encoding human GCGR or GLP-1R, followed by geneticin selection (Life technologies, Carlsbad, Calif.). Single-colony stable cell lines expressing both CRE-luciferase and GCGR/GLP-1R were then established for in vitro activity assays.
(§2) HEK293-GCGR-CRE and HEK293-GLP-1R-CRE cells were seeded in a white 384-well plate at a density of 5,000 cells per well and cultured for 24 hours in DMEM with 10% FBS at 37° C. with 5% CO2. Cells were treated with different peptides in a dose dependent manner. After 24 hours, 10 μL of Bright-Glo reagent (Promega, Madison, Wis.) was added to each well and luminescence was determined using an Envision multilabel plate reader (PerkinElmer, Waltham, Mass.). The EC50 of each peptide was calculated using GraphPad Prism 6 software (GraphPad, San Diego, Calif.).
Background: Reporter assays use an easily measured gene product as a stand-in for the process of interest.

Data set [1] in a line: Far-UV circular dichroism measurement. The settings on record: measure of relative amounts of 310- and α-helix. The data set is classed as physicochemical. Background: Circular dichroism is the unequal absorption of left and right circularly polarised light.
Description: The sensitivity and scan rate of the spectrophotometer were set to 100 mdeg and 50 nm/min, respectively. All peptides were dissolved in 0.1×PBS to reach final concentrations of 0.2 mg/mL.
The nature of data set [2]: In vivo pharmacokinetic studies in mice; plasma peptide measured by GLP-1R reporter assay. Conditions: mouse, 0.3 mg/kg.
Description: All animal care and experimental procedures were approved by the Institutional Animal Care and Use Committee (IACUC) of California Institute for Biomedical Research and strictly followed the NIH guidelines for humane treatment of animals. Female CD-1 mice obtained from Charles River Limited were used after overnight food deprivation for in vivo PK studies. Peptides were dissolved in pH adjusted phosphate buffered saline (PBS, pH=7.4). 100 μL of each peptide (0.3 mg/kg) was administered to each mouse by either i.v. or s.c routes. Food was provided to mice immediately after bleeding at 30 minutes. […] The resulting supernatant plasma was then stored at −80° C. for peptide concentration determination. Peptide concentration in the plasma was determined by in vitro GLP1R activation reporter assay.
HEK 293 cells overexpressing GLP1R and CRE-Luc reporter were treated with plasma samples at different time points (5 point dose response, starting from 1:20 dilution of each plasma sample), incubated for 16 hours in DMEM with 10% FBS at 37° C. with 5% CO2, and the firefly luciferase activity was measured. At the same time, injected peptides were used to obtain standard curves and parameters for Bottom, Top, EC50, Hill Slope. Random luciferase unit (RLU) for each plasma sample was used to calculate the peptide concentrations in plasma (nmol/L), using parameters derived from the standard curve (RLU=Bottom+(Top−Bottom)/(1+10^((Log EC50−Conc.)*Hill Slope)). Peptide concentrations in plasma were obtained and plotted against time points to obtain in vivo half-life of each peptide, using WinNonLin Phoenix software (Pharsight Corp, St. Louis, Mo.).
Data set [3] in a line: In vitro half-life after incubation with freshly isolated mouse serum (GLP-1R activation assay). It is filed as in vitro ADME. The settings on record: read-out: t1/2 in vitro (converted).
Another data set concerns CD1 mice. Description: Oral glucose tolerance test (OGTT). The data set is classed as in vivo. The settings on record: 10 μg/mice s.c. 4 hours before oral glucose challenge.
A further data set deals with T2, GCGR (Homo sapiens, UniProt P47871).
T2 construct: expressed in transfected cells
T2 sequence (P47871 26-477): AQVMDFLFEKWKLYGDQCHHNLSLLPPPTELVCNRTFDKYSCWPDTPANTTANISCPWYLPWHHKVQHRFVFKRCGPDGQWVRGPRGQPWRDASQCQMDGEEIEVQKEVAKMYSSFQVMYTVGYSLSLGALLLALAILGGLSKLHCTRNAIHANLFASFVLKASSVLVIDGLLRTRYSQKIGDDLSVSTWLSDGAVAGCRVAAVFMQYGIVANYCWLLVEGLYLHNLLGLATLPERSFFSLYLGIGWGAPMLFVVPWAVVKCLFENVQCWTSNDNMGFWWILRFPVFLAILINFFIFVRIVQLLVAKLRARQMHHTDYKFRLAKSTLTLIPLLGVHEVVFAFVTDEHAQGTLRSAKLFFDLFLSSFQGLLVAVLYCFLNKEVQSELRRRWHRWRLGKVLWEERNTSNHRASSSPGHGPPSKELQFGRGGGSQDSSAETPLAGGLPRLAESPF
The experiment in a line: CRE-driven luciferase reporter assay, HEK293 cells overexpressing GCGR. It is filed as cell-based. The settings on record: for increase in activity toward GCGR on crosslinking: compared to its linear counterpart. The protocol:
as §1, §2

Setting [4] is: iv, intravenously injected, read-out: elimination half-life (converted).
Setting [5] is: sc, administered subcutaneously, read-out: half-life (converted).

Starred links: 1 amine or outer side, 2 acyl side, 3 side chain; linkers in the order of their positions; H or OH if unused. Positions of bridges follow the written chain, without caps; N, C: chain ends. Non-standard residues stand in square brackets, D forms with d. Residues, ends and D or L forms follow the SMILES beside them. CH2(3,3'-bipyridine-6,6')CH2 = c1cc(C[*:1])ncc1-c1ccc(C[*:2])nc1; Biphenyl(4,4'-CH2)2 = c1cc(-c2ccc(C[*:2])cc2)ccc1C[*:1]; X3 = C(=Cc1ccc(C=CC[*:2])cc1)C[*:1]

T1 sequence (P43220 24-463): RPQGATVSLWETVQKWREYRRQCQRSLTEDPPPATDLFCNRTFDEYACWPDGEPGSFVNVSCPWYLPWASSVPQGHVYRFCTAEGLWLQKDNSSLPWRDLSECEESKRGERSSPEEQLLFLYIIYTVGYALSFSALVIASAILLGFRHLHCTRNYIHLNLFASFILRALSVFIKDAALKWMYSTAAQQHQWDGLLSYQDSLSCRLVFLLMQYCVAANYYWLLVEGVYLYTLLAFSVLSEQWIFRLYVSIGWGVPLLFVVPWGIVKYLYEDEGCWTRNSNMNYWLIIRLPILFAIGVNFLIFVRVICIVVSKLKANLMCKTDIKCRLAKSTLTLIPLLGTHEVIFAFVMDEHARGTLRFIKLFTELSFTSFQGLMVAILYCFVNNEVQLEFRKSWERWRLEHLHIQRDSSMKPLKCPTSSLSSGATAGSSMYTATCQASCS
Description for CD1 mice: CD1 mice were fasted overnight and then administered with certain amount of peptides through s.c. injection (10 μg/mice).

On to `CC[C@H](C)[C@H](NC(=O)[C@H](CC(N)=O)NC(=O)[C@H](CC(N)=O)NC(=O)[C@H](CCCNC(=N)N)NC(=O)[C@H](CC(N)=O)NC(=O)[C@H](CCCNC(=N)N)NC(=O)[C@H](CCCCN)NC(=O)[C@@H](NC(=O)[C@H](CC(N)=O)NC(=O)[C@H](CCSC)NC(=O)[C@H](CC(C)C)NC(=O)[C@H](Cc1c[nH]c2ccccc12)NC(=O)[C@@H]1CSCc2ccc(cn2)-c2ccc(nc2)CSC[C@H](NC(=O)[C@H](CCC(=O)O)NC(=O)[C@H](CC(=O)O)NC(=O)[C@H](CC(C)C)NC(=O)[C@H](Cc2ccc(O)cc2)NC(=O)[C@H](CCCCN)NC(=O)[C@H](CO)NC(=O)[C@H](Cc2ccc(O)cc2)NC(=O)[C@H](CC(=O)O)NC(=O)[C@H](CO)NC(=O)[C@@H](NC(=O)[C@H](Cc2ccccc2)NC(=O)[C@@H](NC(=O)CNC(=O)[C@H](CCC(N)=O)NC(=O)[C@@H](CO)NC(=O)[C@@H](N)Cc2c[nH]cn2)[C@@H](C)O)[C@@H](C)O)C(=O)N[C@@H](C)C(=O)N[C@@H](C)C(=O)N[C@@H](CCCCN)C(=O)N[C@@H](CCC(=O)O)C(=O)N[C@@H](Cc2ccccc2)C(=O)N[C@@H]([C@@H](C)CC)C(=O)N1)[C@@H](C)O)C(=O)N[C@@H](C)C(N)=O` [peptide 11] (H-H[dS]QGTFTSDYSKYLDECAAKEFICWLMNTKRNRNNIA-NH2; linker 17-24 via CH2(3,3'-bipyridine-6,6')CH2), for which the “greater efficacy in receptor activation” value on GLP-1R (compared to peptide 9, GLP-1R and GCGR) is listed as 3-4 fold. Further, in data set [1], the “ratio of [θ]222/[θ]208” value is around 1.0. In addition, the half-life is 84 min in data set [2] (setting [4]), 114 min in data set [2] (setting [5]) and 780 min in data set [3]. Further, the “blood glucose levels decreased to” value in the data set on CD1 mice is given as 45%.

As for `CC[C@H](C)[C@H](NC(=O)[C@H](CC(N)=O)NC(=O)[C@H](CC(N)=O)NC(=O)[C@H](CCCNC(=N)N)NC(=O)[C@H](CC(N)=O)NC(=O)[C@H](CCCNC(=N)N)NC(=O)[C@H](CCCCN)NC(=O)[C@@H](NC(=O)[C@H](CC(N)=O)NC(=O)[C@H](CCSC)NC(=O)[C@H](CC(C)C)NC(=O)[C@H](Cc1c[nH]c2ccccc12)NC(=O)[C@@H]1CSCc2ccc(cc2)-c2ccc(cc2)CSC[C@H](NC(=O)[C@H](CCC(=O)O)NC(=O)[C@H](CC(=O)O)NC(=O)[C@H](CC(C)C)NC(=O)[C@H](Cc2ccc(O)cc2)NC(=O)[C@H](CCCCN)NC(=O)[C@H](CO)NC(=O)[C@H](Cc2ccc(O)cc2)NC(=O)[C@H](CC(=O)O)NC(=O)[C@H](CO)NC(=O)[C@@H](NC(=O)[C@H](Cc2ccccc2)NC(=O)[C@@H](NC(=O)CNC(=O)[C@H](CCC(N)=O)NC(=O)[C@@H](CO)NC(=O)[C@@H](N)Cc2c[nH]cn2)[C@@H](C)O)[C@@H](C)O)C(=O)N[C@@H](C)C(=O)N[C@@H](C)C(=O)N[C@@H](CCCCN)C(=O)N[C@@H](CCC(=O)O)C(=O)N[C@@H](Cc2ccccc2)C(=O)N[C@@H]([C@@H](C)CC)C(=O)N1)[C@@H](C)O)C(=O)N[C@@H](C)C(N)=O` [peptide 9] (H-H[dS]QGTFTSDYSKYLDECAAKEFICWLMNTKRNRNNIA-NH2; linker 17-24 via Biphenyl(4,4'-CH2)2), the “increase in activity toward GLP-1R on crosslinking” value on GLP-1R was 80 fold. Also, the “increase in activity toward GCGR on crosslinking” value at GCGR is 40 fold. In addition, the “ratio of [θ]222/[θ]208” value in data set [1] is given as around 1.0. Also, the half-life is 72 min in data set [2] (setting [4]), 114 min in data set [2] (setting [5]) and 780 min in data set [3]. For the same compound, in the data set with CD1 mice, the “blood glucose levels decreased to” value stood at 40%.

`CC[C@H](C)[C@H](NC(=O)[C@H](CC(N)=O)NC(=O)[C@H](CC(N)=O)NC(=O)[C@H](CCCNC(=N)N)NC(=O)[C@H](CC(N)=O)NC(=O)[C@H](CCCNC(=N)N)NC(=O)[C@H](CCCCN)NC(=O)[C@@H](NC(=O)[C@H](CC(N)=O)NC(=O)[C@H](CCSC)NC(=O)[C@H](CC(C)C)NC(=O)[C@H](Cc1c[nH]c2ccccc12)NC(=O)[C@H](CS)NC(=O)[C@@H](NC(=O)[C@H](Cc1ccccc1)NC(=O)[C@H](CC(=O)O)NC(=O)[C@H](CCC(N)=O)NC(=O)[C@H](C)NC(=O)[C@H](CCCNC(=N)N)NC(=O)[C@H](CS)NC(=O)[C@H](CCC(=O)O)NC(=O)[C@H](CC(=O)O)NC(=O)[C@H](CC(C)C)NC(=O)[C@H](Cc1ccc(O)cc1)NC(=O)[C@H](CCCCN)NC(=O)[C@H](CO)NC(=O)[C@H](Cc1ccc(O)cc1)NC(=O)[C@H](CC(=O)O)NC(=O)[C@H](CO)NC(=O)[C@@H](NC(=O)[C@H](Cc1ccccc1)NC(=O)[C@@H](NC(=O)CNC(=O)[C@H](CCC(N)=O)NC(=O)[C@@H](CO)NC(=O)[C@@H](N)Cc1c[nH]cn1)[C@@H](C)O)[C@@H](C)O)C(C)C)[C@@H](C)O)C(=O)N[C@@H](C)C(N)=O` [peptide 5] (H-H[dS]QGTFTSDYSKYLDECRAQDFVCWLMNTKRNRNNIA-NH2): the “GLP-1R activation, result in words” value at GLP-1R (comparison) is given as “modest enhancement”. Besides, the “GCGR activation, result in words” value at GCGR (comparison) is on record as “modest enhancement”.

Regarding `CC[C@H](C)[C@H](NC(=O)[C@H](CC(N)=O)NC(=O)[C@H](CC(N)=O)NC(=O)[C@H](CCCNC(=N)N)NC(=O)[C@H](CC(N)=O)NC(=O)[C@H](CCCNC(=N)N)NC(=O)[C@H](CCCCN)NC(=O)[C@@H](NC(=O)[C@H](CC(N)=O)NC(=O)[C@H](CCSC)NC(=O)[C@H](CC(C)C)NC(=O)[C@H](Cc1c[nH]c2ccccc12)NC(=O)[C@@H]1CSCc2ccc(cc2)-c2ccc(cc2)CSC[C@@H](NC(=O)[C@H](CO)NC(=O)[C@H](CC(=O)O)NC(=O)[C@H](CC(C)C)NC(=O)[C@H](Cc2ccc(O)cc2)NC(=O)[C@H](CCCCN)NC(=O)[C@H](CO)NC(=O)[C@H](Cc2ccc(O)cc2)NC(=O)[C@H](CC(=O)O)NC(=O)[C@H](CO)NC(=O)[C@@H](NC(=O)[C@H](Cc2ccccc2)NC(=O)[C@@H](NC(=O)CNC(=O)[C@H](CCC(N)=O)NC(=O)[C@@H](CO)NC(=O)[C@@H](N)Cc2c[nH]cn2)[C@@H](C)O)[C@@H](C)O)C(=O)N[C@@H](CCCNC(=N)N)C(=O)N[C@@H](C)C(=O)N[C@@H](CCC(N)=O)C(=O)N[C@@H](CC(=O)O)C(=O)N[C@@H](Cc2ccccc2)C(=O)N[C@@H](C(C)C)C(=O)N1)[C@@H](C)O)C(=O)N[C@@H](C)C(N)=O` [peptide 3] (H-H[dS]QGTFTSDYSKYLDS[dC]RAQDFVCWLMNTKRNRNNIA-NH2; linker 17-24 via Biphenyl(4,4'-CH2)2), on GLP-1R, the “increase in activity toward GLP-1R on crosslinking” value was 2 fold. Further, the “increase in activity toward GCGR on crosslinking” value at GCGR is recorded as 16 fold.

As for exendin-4 [Ex-4, reference compound], the “decrease of the area under curve (AUC) of blood glucose” value with CD1 mice amounted to 30%.

`CC[C@H](C)[C@H](NC(=O)[C@H](CC(N)=O)NC(=O)[C@H](CC(N)=O)NC(=O)[C@H](CCCNC(=N)N)NC(=O)[C@H](CC(N)=O)NC(=O)[C@H](CCCNC(=N)N)NC(=O)[C@H](CCCCN)NC(=O)[C@@H](NC(=O)[C@H](CC(N)=O)NC(=O)[C@H](CCSC)NC(=O)[C@H](CC(C)C)NC(=O)[C@H](Cc1c[nH]c2ccccc12)NC(=O)[C@@H]1CSCC=Cc2ccc(cc2)C=CCSC[C@H](NC(=O)[C@H](CCC(=O)O)NC(=O)[C@H](CC(=O)O)NC(=O)[C@H](CC(C)C)NC(=O)[C@H](Cc2ccc(O)cc2)NC(=O)[C@H](CCCCN)NC(=O)[C@H](CO)NC(=O)[C@H](Cc2ccc(O)cc2)NC(=O)[C@H](CC(=O)O)NC(=O)[C@H](CO)NC(=O)[C@@H](NC(=O)[C@H](Cc2ccccc2)NC(=O)[C@@H](NC(=O)CNC(=O)[C@H](CCC(N)=O)NC(=O)[C@@H](CO)NC(=O)[C@@H](N)Cc2c[nH]cn2)[C@@H](C)O)[C@@H](C)O)C(=O)N[C@@H](C)C(=O)N[C@@H](C)C(=O)N[C@@H](CCCCN)C(=O)N[C@@H](CCC(=O)O)C(=O)N[C@@H](Cc2ccccc2)C(=O)N[C@@H]([C@@H](C)CC)C(=O)N1)[C@@H](C)O)C(=O)N[C@@H](C)C(N)=O` [compound 12] (H-H[dS]QGTFTSDYSKYLDECAAKEFICWLMNTKRNRNNIA-NH2; linker 17-24 via X3): the EC50 on GLP-1R (Table 2, mean and standard deviation, assay performed three times, read-out: Agonist activity (nM) GLP-1R) was 0.45 ± 0.03 nM; on GCGR (Table 2, mean and standard deviation, assay performed three times, read-out: Agonist activity (nM) GCGR) it was 1 ± 0.12 nM.

Values taken from patent US9931379B2, “Oxyntomodulin analogs and methods of making and using same” (The Research Foundation for The State University of New York, priority 2015, dated 2018).
